Measurements: patent US4631289A, “Useful in radiotherapy of chemotherapy 4-aziridino-1-nitroimidazol-1-yl-2,3-butanediols” (National Research Development Corporation, priority 1982, dated 1986)
Where two headings read alike, the source gives them in different places.

Legend:
[1] = tested on: irradiated hypoxic V79 mammalian cells; assay: Sensitisation: concentration for enhancement ratio of 1.6 in irradiated hypoxic V79 cells; format: cell-based; conditions: Cricetulus griseus, read-out: C1.6 (concentration required to achieve an enhancement ratio of 1.6)
Text: ^a Concentration required to achieve an enhancement ratio of 1.6 in
irradiated hypoxic V79 mammalian cells.

[2] = Toxicity, LD50, i.p. in female WHT mice; conditions: mouse, in vivo, ip
Text: (§1) ^b Drugs administered i.p. to .female. WHT mice.

MT tumour [3] = assay: Radiosensitization: enhancement of radiation treatment in WHT mice bearing MT tumour (Example 2); format: in vivo; conditions: administered dose 3.8 mmoles/kg, intraperitoneal, before radiation; tumour implanted subcutaneously
Protocol: (§2) In the following Examples, WHT mice in which the MT tumour has been implanted subcutaneously are administered the compound of Example 1 intraperitoneally before treatment with radiation or with the chemotherapeutic agent melphalan. The time before such treatment at which the drug is administered is such that maximum enhancement is effected. The results of treatment with radiation and the chemotherapeutic drug are set out respectively in Tables I and II together with comparison results using misonidazole (MISO) and the compound Ro-03-8799. The asterisks against the results from treatment with the latter compounds indicate that the tumours treated in these cases are intramuscular.

MT tumour [4] = assay: Chemosensitization (melphalan): enhancement of melphalan treatment in WHT mice bearing MT tumour (Example 3); format: in vivo; conditions: i.p. before melphalan
Protocol: as §2

[5] = Toxicity, LD50, i.p. in male CRCD1 mice; conditions: mouse, in vivo, ip, male CRCD1 mice (footnote c)
Text: as §1
^c For Compound of Example 1 in .male. CRCD1 mice

[6] = administered dose 0.72 mmoles/kg, * tumours intramuscular

**Q.** For `C[C@@H]1[C@H](C)N1CC(O)Cn1ccnc1[N+](=O)[O-]` (relative stereo) [Example 13, 1-(2-Nitro-1-imidazolyl)-3-(2,3-dimethyl-1-aziridino)-2-propanol], which EC (enhancement ratio 1.6) ([1]; V79, light or radiation study) is on record?
**A.** 80 µM

**Q.** What about the LD50 [2] of the same compound?
**A.** ≤ 1250 µmol/kg

**Q.** With `C[C@@H]1[C@@H](C)N1CC(O)Cn1ccnc1[N+](=O)[O-]` (relative stereo) [Example 14, 1-(2-Nitro-1-imidazolyl)-3-(2,3-dimethyl-1-aziridino)-2-propanol] as the compound, how does the EC (enhancement ratio 1.6) ([1]; V79, light or radiation study) read?
**A.** 80 µM

**Q.** What does the source list for `O=[N+]([O-])c1nccn1CC(O)CN1CC1` (stereo not shown) [Example 1, 1-(2-Nitro-1-imidazolyl)-3-(1-aziridino)-2-propanol]?
**A.** Enhancement ratio (Radiosensitization) (MT tumour [3]): 1.7; Enhancement ratio (Chemosensitization, melphalan) (MT tumour [4]; administered dose 0.08 mmoles/kg, tumour implanted subcutaneously): 3.0; EC (enhancement ratio 1.6) ([1]; light or radiation study, irradiated hypoxic V79 mammalian cells): 100 µM; LD50 [5]: 610 µmol/kg

**Q.** Which results are given for `CC1CN1CC(O)Cn1ccnc1[N+](=O)[O-]` (stereo not shown) [Example 4, 1-(2-Nitro-1-imidazolyl)-3-(2-methyl-1-aziridino)-2-propanol]?
**A.** EC (enhancement ratio 1.6) ([1]; V79, light or radiation study): 80 µM; LD50 [2]: < 580 µmol/kg

**Q.** Which EC (enhancement ratio 1.6) ([1]; V79, light or radiation study) does the source give for `CCC1CN1CC(O)Cn1ccnc1[N+](=O)[O-]` (stereo not shown) [Example 5, 1-(2-Nitro-1-imidazolyl)-3-(2-ethyl-1-aziridino)-2-propanol] here?
**A.** 130 µM

**Q.** What about the LD50 [2] of the same compound?
**A.** 580 µmol/kg

**Q.** Which results are given for `CC1(C)CN1CC(O)Cn1ccnc1[N+](=O)[O-]` (stereo not shown) [Example 7, 1-(2-Nitro-1-imidazolyl)-3-(2,2-dimethyl-1-aziridino)-2-propanol]?
**A.** EC (enhancement ratio 1.6) ([1]; V79, light or radiation study): 80 µM; LD50 [2]: 1250 µmol/kg

**Q.** Which EC (enhancement ratio 1.6) ([1]; V79, light or radiation study) does the source give for `O=[N+]([O-])c1nccn1CC(O)CN1CC1c1ccccc1` (stereo not shown) [Example 8, 1-(2-Nitro-1-imidazolyl)-3-(2-phenyl-1-aziridino)-2-propanol] here?
**A.** 300 µM

**Q.** With `CC(C)C1CN1CC(O)Cn1ccnc1[N+](=O)[O-]` (stereo not shown) [Example 9, 1-(2-Nitro-1-imidazolyl)-3-(2-isopropyl-1-aziridino)-2-propanol] as the compound, how does the EC (enhancement ratio 1.6) ([1]; V79, light or radiation study) read?
**A.** 130 µM

**Q.** What about the LD50 [2] of the same compound?
**A.** ≤ 1180 µmol/kg

**Q.** With `O=[N+]([O-])c1nccn1CC(O)C(O)CN1CC1` (stereo not shown) [Example 10, 1-(2-Nitro-1-imidazolyl)-4-(1-aziridino) or substituted aziridino)-2,3-butane-diol] as the compound, how does the EC (enhancement ratio 1.6) ([1]; V79, light or radiation study) read?
**A.** 130 µM

**Q.** And the LD50 [2]?
**A.** 410 µmol/kg

**Q.** What does the source list for `Cc1ncc([N+](=O)[O-])n1CC(O)CN1CC1` (stereo not shown) [Example 11, 1-(2-methyl-5-nitro-1-imidazolyl)-3-(1-aziridino or substitutedaziridino)-2-propanol]?
**A.** EC (enhancement ratio 1.6) ([1]; V79, light or radiation study): 300 µM; LD50 [2]: 800 µmol/kg

**Q.** Which results are given for `O=[N+]([O-])c1nccn1CC(O)CN1CCCCC1` (stereo not shown) [Example 8799]?
**A.** Enhancement ratio (Radiosensitization) (MT tumour [3]): 1.3; Enhancement ratio (Chemosensitization, melphalan) (MT tumour [4]; [6]): 2.2; Enhancement ratio (Chemosensitization, melphalan) (MT tumour [4]; administered dose 0.72 mmoles/kg, tumour implanted subcutaneously): 1.9

**Q.** For `COCC(O)Cn1ccnc1[N+](=O)[O-]` (stereo not shown) [MISO, misonidazole], which “Enhancement ratio (Radiosensitization)” value (MT tumour [3]) is on record?
**A.** 1.3

**Q.** What about the “Enhancement ratio (Chemosensitization, melphalan)” value (MT tumour [4]; [6]) of the same compound?
**A.** 1.7
